Test results published in the NIST ThermoML archive (doi:10.1016/j.fluid.2014.04.002).

Test: xn = mol fraction of the nth substance listed
Conditions: 101 kPa, Liquid; for viscosity: Concentric cylinders viscometry; for mass density: Vibrating tube method

CCOC(=O)C(C)O (stereo not drawn) [DL-ethyl lactate] + CC(O)CO
Conditions	mass density [kg/m3]	viscosity [mPa·s]
288.15 K, x1 = 0.1	1039.89	49.88
288.15 K, x1 = 0.2	1039.87	30.87
288.15 K, x1 = 0.3	1039.88	21.2
288.15 K, x1 = 0.3999	1039.91	14.75
288.15 K, x1 = 0.4998	1039.94	10.62
288.15 K, x1 = 0.599	1039.96	7.616
288.15 K, x1 = 0.6999	1039.9	6.169
288.15 K, x1 = 0.7994	1039.72	4.764
288.15 K, x1 = 0.8997	1039.32	4.114
288.15 K, x1 = 1	1039.28	3.207
293.15 K, x1 = 0.1	1036.36	36.91
293.15 K, x1 = 0.2	1035.81	23.41
293.15 K, x1 = 0.3	1035.6	16.34
293.15 K, x1 = 0.3999	1035.44	11.64
293.15 K, x1 = 0.4998	1035.3	8.236
293.15 K, x1 = 0.599	1035.15	6.227
293.15 K, x1 = 0.6999	1034.93	5.098
293.15 K, x1 = 0.7994	1034.57	4.153
293.15 K, x1 = 0.8997	1034.01	3.478
293.15 K, x1 = 1	1033.84	2.75
298.15 K, x1 = 0.1	1032.13	27.72
298.15 K, x1 = 0.2	1031.64	18.11
298.15 K, x1 = 0.3	1031.2	12.87
298.15 K, x1 = 0.3999	1030.83	9.303
298.15 K, x1 = 0.4998	1030.52	6.75
298.15 K, x1 = 0.599	1030.23	5.172
298.15 K, x1 = 0.6999	1029.94	4.274
298.15 K, x1 = 0.7994	1029.58	3.521
298.15 K, x1 = 0.8997	1029.08	2.978
298.15 K, x1 = 1	1028.39	2.39
303.15 K, x1 = 0.1	1028.31	21.49
303.15 K, x1 = 0.2	1027.6	14.26
303.15 K, x1 = 0.3	1026.98	10.37
303.15 K, x1 = 0.3999	1026.44	7.605
303.15 K, x1 = 0.4998	1025.95	5.615
303.15 K, x1 = 0.599	1025.46	4.35
303.15 K, x1 = 0.6999	1024.89	3.632
303.15 K, x1 = 0.7994	1024.21	3.021
303.15 K, x1 = 0.8997	1023.32	2.582
303.15 K, x1 = 1	1022.92	2.097
308.15 K, x1 = 0.1	1024.23	16.84
308.15 K, x1 = 0.2	1023.36	11.41
308.15 K, x1 = 0.3	1022.6	8.434
308.15 K, x1 = 0.3999	1021.9	6.292
308.15 K, x1 = 0.4998	1021.21	4.739
308.15 K, x1 = 0.599	1020.5	3.704
308.15 K, x1 = 0.6999	1019.72	3.118
308.15 K, x1 = 0.7994	1018.88	2.626
308.15 K, x1 = 0.8997	1017.93	2.259
308.15 K, x1 = 1	1017.42	1.858
313.15 K, x1 = 0.1	1020.4	13.41
313.15 K, x1 = 0.2	1019.26	9.264
313.15 K, x1 = 0.3	1018.24	6.949
313.15 K, x1 = 0.3999	1017.32	5.27
313.15 K, x1 = 0.4998	1016.47	4.04
313.15 K, x1 = 0.599	1015.64	3.187
313.15 K, x1 = 0.6999	1014.75	2.706
313.15 K, x1 = 0.7994	1013.74	2.302
313.15 K, x1 = 0.8997	1012.53	1.995
313.15 K, x1 = 1	1011.9	1.658
318.15 K, x1 = 0.1	1016.39	10.83
318.15 K, x1 = 0.2	1015.04	7.619
318.15 K, x1 = 0.3	1013.82	5.804
318.15 K, x1 = 0.3999	1012.72	4.465
318.15 K, x1 = 0.4998	1011.69	3.482
318.15 K, x1 = 0.599	1010.69	2.767
318.15 K, x1 = 0.6999	1009.63	2.368
318.15 K, x1 = 0.7994	1008.46	2.034
318.15 K, x1 = 0.8997	1007.1	1.774
318.15 K, x1 = 1	1006.36	1.491
323.15 K, x1 = 0.1	1012.34	8.86
323.15 K, x1 = 0.2	1010.78	6.34
323.15 K, x1 = 0.3	1009.36	4.904
323.15 K, x1 = 0.3999	1008.08	3.824
323.15 K, x1 = 0.4998	1006.88	3.03
323.15 K, x1 = 0.599	1005.71	2.423
323.15 K, x1 = 0.6999	1004.48	2.09
323.15 K, x1 = 0.7994	1003.15	1.81
323.15 K, x1 = 0.8997	1001.64	1.589
323.15 K, x1 = 1	1000.79	1.349

CCOC(=O)C(C)O (stereo not drawn) [DL-ethyl lactate] + OCCCO
Conditions	mass density [kg/m3]	viscosity [mPa·s]
288.15 K, x1 = 0.1001	1056.19	51.26
288.15 K, x1 = 0.2001	1055.73	38.55
288.15 K, x1 = 0.3	1054.58	28.06
288.15 K, x1 = 0.3998	1053.41	20.15
288.15 K, x1 = 0.4996	1051.81	14.63
288.15 K, x1 = 0.5997	1049.85	10.55
288.15 K, x1 = 0.7	1047.67	7.714
288.15 K, x1 = 0.8	1045.16	5.639
288.15 K, x1 = 0.8997	1042.56	4.327
288.15 K, x1 = 1	1039.28	3.207
293.15 K, x1 = 0.1001	1052.84	40.04
293.15 K, x1 = 0.2001	1052.12	30.14
293.15 K, x1 = 0.3	1050.74	22.16
293.15 K, x1 = 0.3998	1049.3	16.06
293.15 K, x1 = 0.4996	1047.46	11.78
293.15 K, x1 = 0.5997	1045.28	8.579
293.15 K, x1 = 0.7	1042.88	6.35
293.15 K, x1 = 0.8	1040.14	4.704
293.15 K, x1 = 0.8997	1037.34	3.583
293.15 K, x1 = 1	1033.84	2.75
298.15 K, x1 = 0.1001	1049.47	31.54
298.15 K, x1 = 0.2001	1048.48	23.97
298.15 K, x1 = 0.3	1046.87	17.76
298.15 K, x1 = 0.3998	1045.13	12.92
298.15 K, x1 = 0.4996	1043.1	9.585
298.15 K, x1 = 0.5997	1040.69	7.071
298.15 K, x1 = 0.7	1038.07	5.296
298.15 K, x1 = 0.8	1035.11	3.974
298.15 K, x1 = 0.8997	1032.1	3.071
298.15 K, x1 = 1	1028.39	2.39
303.15 K, x1 = 0.1001	1046.08	25.3
303.15 K, x1 = 0.2001	1044.83	19.39
303.15 K, x1 = 0.3	1042.98	14.35
303.15 K, x1 = 0.3998	1041.02	10.58
303.15 K, x1 = 0.4996	1038.71	7.942
303.15 K, x1 = 0.5997	1036.07	5.912
303.15 K, x1 = 0.7	1033.23	4.482
303.15 K, x1 = 0.8	1030.05	3.405
303.15 K, x1 = 0.8997	1026.83	2.661
303.15 K, x1 = 1	1022.92	2.097
308.15 K, x1 = 0.1001	1042.68	20.61
308.15 K, x1 = 0.2001	1041.16	15.81
308.15 K, x1 = 0.3	1039.07	11.84
308.15 K, x1 = 0.3998	1036.66	8.791
308.15 K, x1 = 0.4996	1034.3	6.65
308.15 K, x1 = 0.5997	1031.42	5.009
308.15 K, x1 = 0.7	1028.37	3.833
308.15 K, x1 = 0.8	1024.96	2.944
308.15 K, x1 = 0.8997	1021.54	2.329
308.15 K, x1 = 1	1017.42	1.858
313.15 K, x1 = 0.1001	1039.25	16.9
313.15 K, x1 = 0.2001	1037.46	13.04
313.15 K, x1 = 0.3	1035.13	9.826
313.15 K, x1 = 0.3998	1032.52	7.365
313.15 K, x1 = 0.4996	1029.86	5.624
313.15 K, x1 = 0.5997	1026.75	4.28
313.15 K, x1 = 0.7	1023.48	3.308
313.15 K, x1 = 0.8	1019.84	2.57
313.15 K, x1 = 0.8997	1016.22	2.056
313.15 K, x1 = 1	1011.9	1.658
318.15 K, x1 = 0.1001	1035.8	14
318.15 K, x1 = 0.2001	1033.74	10.86
318.15 K, x1 = 0.3	1031.16	8.236
318.15 K, x1 = 0.3998	1028.33	6.232
318.15 K, x1 = 0.4996	1025.39	4.805
318.15 K, x1 = 0.5997	1022.05	3.691
318.15 K, x1 = 0.7	1018.55	2.883
318.15 K, x1 = 0.8	1014.69	2.263
318.15 K, x1 = 0.8997	1010.87	1.83
318.15 K, x1 = 1	1006.36	1.491
323.15 K, x1 = 0.1001	1032.33	11.78
323.15 K, x1 = 0.2001	1030	9.189
323.15 K, x1 = 0.3	1027.16	7.027
323.15 K, x1 = 0.3998	1024.09	5.361
323.15 K, x1 = 0.4996	1020.89	4.174
323.15 K, x1 = 0.5997	1017.32	3.235
323.15 K, x1 = 0.7	1013.6	2.551
323.15 K, x1 = 0.8	1009.51	2.023
323.15 K, x1 = 0.8997	1005.5	1.648
323.15 K, x1 = 1	1000.79	1.349
